Measured values as given in patent publication US9840510B1, “Pyrazolo[1,5-a]pyrimidinyl carboxamide compounds and their use in the treatment of medical disorders” (Lysosomal Therapeutics Inc., priority 2016, dated 2017).
In brackets after ≈: the same amount, converted by molar mass.

Molecular target: T1, glucocerebrosidase (Gcase) (Homo sapiens, UniProt P04062)
T1 sequence (P04062 40-536): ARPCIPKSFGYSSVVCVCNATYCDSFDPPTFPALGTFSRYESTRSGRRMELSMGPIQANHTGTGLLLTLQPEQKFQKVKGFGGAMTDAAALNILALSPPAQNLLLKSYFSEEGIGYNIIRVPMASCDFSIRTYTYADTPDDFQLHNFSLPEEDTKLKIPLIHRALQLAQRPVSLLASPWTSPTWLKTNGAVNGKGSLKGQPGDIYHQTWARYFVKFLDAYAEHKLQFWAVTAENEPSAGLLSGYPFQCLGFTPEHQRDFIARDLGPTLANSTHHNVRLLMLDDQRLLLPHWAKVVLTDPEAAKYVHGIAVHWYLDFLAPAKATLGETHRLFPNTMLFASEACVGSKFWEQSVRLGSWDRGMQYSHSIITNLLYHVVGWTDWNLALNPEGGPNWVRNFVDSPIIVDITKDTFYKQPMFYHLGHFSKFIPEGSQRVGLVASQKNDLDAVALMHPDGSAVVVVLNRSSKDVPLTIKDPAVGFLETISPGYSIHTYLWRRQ
Assay: Glucocerebrosidase (Gcase) activation assay, 4-methylumbelliferyl-beta-D-glucopyranoside substrate, fluorescence endpoint
Format: biochemical
Conditions: test compound at 0.1 μM
Procedure: The ability of exemplary compounds to activate glucocerebrosidase (Gcase) was measured.
A 484 μL aliquot of a 1.0 mg/mL solution of phosphatidylserine (PS) (Sigma P7769) in chloroform was evaporated under a stream of nitrogen for 1 hour. The lipid film was dissolved over 4 minutes of vigorous vortexing in 40 mL of 176 mM K2HPO4/50 mM citric acid (pH 4.7) containing 7.5 μL of triton X-100, resulting in a mixed micellar preparation with a composition of 0.32 mM triton and 0.37 mol % PS. 4-Methylumbelliferyl-beta-D-glucopyranoside (ACROS-337025000) was dissolved in the micellar solution to a final concentration of 2 mM for use as the reaction substrate.
Test compounds were diluted to the desired concentrations with dimethylsulfoxide (DMSO) from 10 mM stocks, and 0.41 μL of the DMSO compound mixture was added to 100 μL of micellar solution containing 10 nM GCase and 100 nM saposin C (Enzo ALX-201-262-C050). Pre-incubation was allowed to occur for 30 minutes at room temperature, after which the reaction was initiated by combining 25 μL of substrate solution with 25 μL of compound/GCase/saposin mixture. The reaction proceeded for 15 minutes at room temperature and was stopped by adding 150 μL of 1M glycine, pH 12.5. The endpoint of the reaction was monitored by measuring fluorescence intensity (excitation: 365 nm; emission: 440 nm) on a SpectraMax i3 instrument (Molecular Devices). Test compounds were screened at 1.0 and 0.1 μM final concentration, and subsequent 8-point dose response curves were obtained using 3-fold dilutions from a maximum final concentration of 5 μM.

| SMILES | Percent Gcase Activation, 0.1 μM Test Compound |
| --- | --- |
| COc1cccc(-c2cc(C)n3ncc(C(=O)NC(C4CC4)C(F)(F)F)c3n2)c1 (stereo not drawn) [III-105] | *** (greater than 20% Gcase activation) |
| Cc1cc(-c2ccc(Cl)cn2)nc2c(C(=O)N[C@@H](C3CC3)C(F)(F)F)cnn12 [III-118] | *** (greater than 20% Gcase activation) |
| Cc1cc(-c2cccc(F)n2)nc2c(C(=O)NC(C)C3CC3)cnn12 (stereo not drawn) [III-130] | *** (greater than 20% Gcase activation) |

Same assay, conditions: test compound at 1.0 μM

| SMILES | Percent Gcase Activation, 1 μM Test Compound |
| --- | --- |
| COc1cccc(-c2cc(C)n3ncc(C(=O)NC(C4CC4)C(F)(F)F)c3n2)c1 (stereo not drawn) [III-105] | +++ (Gcase activation greater than 60%) |
| Cc1cc(-c2ccc(Cl)cn2)nc2c(C(=O)N[C@@H](C3CC3)C(F)(F)F)cnn12 [III-118] | +++ (Gcase activation greater than 60%) |
| Cc1cc(-c2cccc(F)n2)nc2c(C(=O)NC(C)C3CC3)cnn12 (stereo not drawn) [III-130] | +++ (Gcase activation greater than 60%) |

Test system: not listed separately
Assay: Compound solubility in water
Format: physicochemical
Conditions: not given

| SMILES | solubility |
| --- | --- |
| COc1cccc(-c2cc(C)n3ncc(C(=O)NC(C4CC4)C(F)(F)F)c3n2)c1 (stereo not drawn) [III-105] | 0.08 µg/mL (≈ 0.198 µM) |
| Cc1cc(-c2ccc(Cl)cn2)nc2c(C(=O)N[C@@H](C3CC3)C(F)(F)F)cnn12 [III-118] | 0.4 µg/mL (≈ 0.976 µM) |
| Cc1cc(-c2cccc(F)n2)nc2c(C(=O)NC(C)C3CC3)cnn12 (stereo not drawn) [III-130] | 0.2 µg/mL (≈ 0.589 µM) |
| Cc1cc(-c2cc(F)ccc2C#N)nc2c(C(=O)N[C@@H](C)C3CC3)cnn12 [III-396] | 0.3 µg/mL (≈ 0.826 µM) |
| Cc1cc(-c2cccc(F)c2C#N)nc2c(C(=O)N[C@@H](C)C3CC3)cnn12 [III-398] | 0.2 µg/mL (≈ 0.55 µM) |
| Cc1cc(-c2cccc(F)c2C#N)nc2c(C(=O)N[C@@H](C)C(F)(F)F)cnn12 [III-399] | 0.1 µg/mL (≈ 0.256 µM) |
| CO[C@H]1CC[C@H]([C@@H](C)NC(=O)c2cnn3c(C)cc(C)nc23)CC1 [III-403] | 21.4 µg/mL (≈ 64.8 µM) |
| CO[C@H]1CC[C@@H]([C@@H](C)NC(=O)c2cnn3c(C)cc(C)nc23)CC1 [III-404] | 15.1 µg/mL (≈ 45.7 µM) |
| COc1cccc(-c2cc(C)n3ncc(C(=O)NC(C)(C)C(F)(F)F)c3n2)c1 [III-405] | 1.5 µg/mL (≈ 3.82 µM) |
| Cc1cc(-c2cccc(Cl)c2)nc2c(C(=O)NC(C)(C)C(F)(F)F)cnn12 [III-406] | 0.8 µg/mL (≈ 2.02 µM) |
| CCc1cc(-c2ccccn2)nc2c(C(=O)NC(C)(C)C(F)(F)F)cnn12 [III-407] | 0.09 µg/mL (≈ 0.238 µM) |
| Cc1cc(-c2ccccn2)nc2c(C(=O)NC(C)(C)C(F)(F)F)cnn12 [III-408] | 0.4 µg/mL (≈ 1.1 µM) |
| COc1ccc(F)c(-c2cc(C)n3ncc(C(=O)NC(C)C(F)(F)F)c3n2)c1 (stereo not drawn) [III-409] | 0.9 µg/mL (≈ 2.27 µM) |
| COc1cc(F)cc(-c2cc(C)n3ncc(C(=O)NC(C)C(F)(F)F)c3n2)c1 (stereo not drawn) [III-410] | 0.06 µg/mL (≈ 0.151 µM) |
| Cc1cc(-c2ccns2)nc2c(C(=O)NC(C3CC3)C(F)(F)F)cnn12 (stereo not drawn) [III-411] | 0.7 µg/mL (≈ 1.84 µM) |
| C#CC(C)(C)NC(=O)c1cnn2c(C)cc(-c3ccns3)nc12 [III-412] | 3.7 µg/mL (≈ 11.4 µM) |
| Cc1cc(-c2cccc(C(=O)N(C)C)c2)nc2c(C(=O)NC(C3CC3)C(F)(F)F)cnn12 (stereo not drawn) [III-413] | 6 µg/mL (≈ 13.5 µM) |
| CNC(=O)c1cccc(-c2cc(C)n3ncc(C(=O)NC(C4CC4)C(F)(F)F)c3n2)c1 (stereo not drawn) [III-414] | 1.6 µg/mL (≈ 3.71 µM) |
| Cc1cc(-c2cccc(-n3cccn3)c2)nc2c(C(=O)NC(C3CC3)C(F)(F)F)cnn12 (stereo not drawn) [III-415] | 1.2 µg/mL (≈ 2.72 µM) |
| Cc1cc(-c2cccc(-c3ncco3)c2)nc2c(C(=O)NC(C3CC3)C(F)(F)F)cnn12 (stereo not drawn) [III-416] | 0.3 µg/mL (≈ 0.68 µM) |
| Cc1cc(-c2cccc(-c3ncccn3)c2)nc2c(C(=O)NC(C3CC3)C(F)(F)F)cnn12 (stereo not drawn) [III-417] | 0.04 µg/mL (≈ 0.0884 µM) |
